The values below come from patent US20100203110A1, “Therapeutics for Cancer Using 3-Bromopyruvate and Other Selective Inhibitors of ATP Production” (The Johns Hopkins University, priority 2006, published 2010).

One data set relates to VX2 tumor. Nature of the data set: PET/CT imaging and histopathology after 1-hour intraarterial infusion. The class given is in vivo, rabbit. The procedure:
To further confirm the tumor destruction using 3-bromopyruvate, Positron Emission Tomography (PET)/CT imaging was conducted in rabbits before and after a single 1-hour intraarterial (infusion) therapy with 3-bromopyruvate. […] Since 3-bromopyruvate acts extremely quickly, PET/CT images were obtained within 2 hours of therapy to examine the process of making a decision regarding immediate re-treatment. After the PET/CT images were obtained, the 2 rabbits were sacrificed, their liver explanted and submitted for histopathologic analysis. Various staining methods that the tumor was completely (100%) dead and that the mechanism of cell death was apoptotic, thus confirming the use of PET imaging in assessing tumor response.

Data set [1] deals with mitochondrial hexokinase of the VX2 tumor. Nature of the data set: Hexokinase activity assay coupled to glucose-6-phosphate dehydrogenase. The class given is biochemical, rabbit. The settings on record: VX2 tumor mitochondria, cell free. The procedure:
The freshly isolated liver or VX2 tumor tissues (15-20 g wet weight) was rinsed in 3 volumes of H-medium (210 mM D-mannitol, 70 mM sucrose, 2 mM Hepes, and 0.05% bovine albumin, pH 7.4) at 4° C. and minced with a razor blade as finely as possible. A 30% (V/V) suspension was made using ice-cold H-medium in a Potter-Elvehjem glass homogenizer (55 ml capacity), and homogenization was achieved by applying 4 complete up and down strokes through the suspension with a rotating (˜400 rpm), serrated, teflon pestle attached to a motor. To remove cell debris and nuclei, the resultant homogenate was diluted to twice the initial volume and centrifuged at 630×g for 8 minutes at 4° C. in a Sorvall RC-2B centrifuge using a GSA rotor. The supernatant was removed and then centrifuged at 6,800 g for 15 min under the same conditions. The resultant supernatant was saved and referred to here as the cytosolic faction. The pellet was resuspended in the initial volume of H-medium and centrifuged twice at 9,800×g for 15 min at 4° C. The washed pellet represents the mitochondrial fraction.
The assay coupled the glucose-6-phosphate formed in the hexokinase reaction to the glucose-6-phosphate dehydrogenase reaction. Here, NADP+, oxidizes glucose-6-phosphate to a g-lactone while becoming reduced to NADPH, thus allowing the formation of the latter to be monitored spectrophotometrically at 340 nm. […]

The subject of a further data set is Sk-Hep1. Nature of the data set: ATP levels after treatment, Sk-Hep1. The settings on record: 0.1, 0.2, 0.3 mM for 1 and 3 hours. The class given is cell-based. The method, then:
ATP levels were measured in various cell lines, e.g., HepG2, Sk-Hep1, and Vx-2 after 3-bromopyruvate treatment. In each case, cells were treated with increasing concentration of 3-bromopyruvate (0.1 mM, 0.2 mM, and 0.3 mM) for 1 and 3 hours before measuring ATP levels in the cell. FIGS. 5 (A-C) show the ATP depletion observed following 3-bromopyruvate treatment in HepG2, Sk-Hep1, and Vx-2 cell lines, respectively.

Data set [2] can be described thus: Acute toxicity study, single IV dose in rabbits. The class given is in vivo, rabbit. The procedure: In addition, an acute toxicity study was performed to determine the effects of 3-bromopyruvate administered IV. Based on the data acquired in rats, rabbits (2 animals per group followed for 1 week) were given 25 ml of 15, 20, and 25 mM 3-bromopyruvate as a single IV dose (i.e., using dose identified for rats).

Data set [3] is described as follows: Intravenous dose-escalation study in normal Lewis rats. It counts as in vivo, rat. To be noted: for therapeutic dose, intravenous: Lewis rats. The procedure:
In order to determine the therapeutic dose of 3-bromopyruvate for intravenous (N) administration, a dose-escalation study was conducted in normal Lewis rats (non-tumor bearing). Each group of animals (6 rats per group) received incremental doses of 3-bromopyruvate intravenously (2.5 mL of 5, 10, 15, 20, 25 and 50 mM 3-bromopyruvate).

On to `O=C(O)C(=O)CBr` [3-bromopyruvate], for which the “tumor activity on post-treatment PET/CT scans” value in the data set on VX2 tumor (2 hours after single 1-hour intraarterial infusion) was “complete disappearance of tumor activity”. The “tumor death by histopathology” value in the data set with VX2 tumor (after single 1-hour intraarterial infusion) was found to be 100%. Moreover, the “mechanism of cell death” value in the data set on VX2 tumor (histopathologic staining) is “apoptotic”. In addition, in data set [1], the “concentration for complete inhibition of hexokinase activity” value is 5 mM. For the same compound, the ATP levels entry in the data set on Sk-Hep1 was “ATP depletion”. Further, the organ toxicity result in data set [2] (20 mM single IV dose) was “no evidence of any organ toxicity”. Also, the “therapeutic dose, intravenous” value in data set [2] (25 ml single IV dose, 1 week) amounted to 20 mM; in data set [2] (single IV dose), 16.8 mg/kg; in data set [3] (2.5 mL IV, observed 3 weeks), 20 mM; in data set [3] (IV) it was 16.8 mg/kg. In data set [3] (50 mM IV), the “organs by histopathologic analysis” value was “normal”. Also, the tolerability entry in data set [3] (all doses lower than 20 mM IV) is “well-tolerated and caused no deaths”. The “clinical distress (appetite, urination, body weight)” value in data set [3] (doses lower than 20 mM IV) was “no evidence of clinical distress”. Besides, in data set [3] (doses lower than 20 mM IV), the “major organs at necropsy” value is given as “without any damage”. The mortality result in data set [3] (highest dose of 50 mM IV) is reported as “all the animals in the group died”. This compound also yielded a time to death in data set [3] (highest dose of 50 mM IV) of no more than 15 min.
